Counter-ions that a name gives are not always drawn.
Experiments:
[1] = target: T1, c-MET kinase (Seq. ID No. 2) (Homo sapiens, UniProt P08581); assay: c-MET kinase assay (pyruvate kinase/lactate dehydrogenase coupled, A340); assay type: biochemical; settings: enzymatic assay, 0.5 h pre-incubation, ATP 100 μM; read-out: cMET
T1 construct: c-MET (c-MET residues: 956-1390, from Invitrogen, catalogue #PV3143, 6 nM); purchased Invitrogen PV3143
Protocol: Activity of c-MET kinase (Seq. ID No. 2) was determined by following the production of ADP from the kinase reaction through coupling with the pyruvate kinase/lactate dehydrogenase system (e.g., Schindler et al. Science 2000, 289, pp. 1938-1942). In this assay, the oxidation of NADH (thus the decrease at A340 nm) was continuously monitored spectrophotometrically. The reaction mixture (100 μl) contained c-MET (c-MET residues: 956-1390, from Invitrogen, catalogue #PV3143, 6 nM), polyE4Y (1 mg/mL), MgCl2 (10 mM), pyruvate kinase (4 units), lactate dehydrogenase (0.7 units), phosphoenol pyruvate (1 mM), and NADH (0.28 mM) in 90 mM Tris buffer containing 0.25 mM DTT, 0.2% octyl-glucoside and 1% DMSO, pH 7.5. Test compounds were incubated with c-MET (Seq. ID No. 2) and other reaction reagents at 22° C. for 0.5 h before ATP (100 μM) was added to start the reaction. The absorption at 340 nm was monitored continuously for 2 hours at 30° C. on Polarstar Optima plate reader (BMG). The reaction rate was calculated using the 1.0 to 2.0 h time frame. Percent inhibition was obtained by comparison of reaction rate with that of a control (i.e., with no test compound). IC50 values were calculated from a series of percent inhibition values determined at a range of inhibitor concentrations using software routines as implemented in the GraphPad Prism software package.

[2] = target: KDR kinase (Seq ID No. 3) (Homo sapiens, UniProt P35968, DEL940-989/E990V); assay: KDR kinase assay (assays K1, K2, K3); assay type: biochemical; settings: enzymatic assay; variant K1, K2 or K3 not given
Protocol: The activity of KDR kinase was determined by following the production of ADP from the kinase reaction through coupling with the pyruvate kinase/lactate dehydrogenase system (e.g., Schindler et al. Science 2000, 289, pp. 1938-1942). In this assay, the oxidation of NADH (thus the decrease at A340 nm) was continuously monitored spectrophotometrically. The reaction mixture (100 μl) contained KDR (Seq ID No. 3, 1.5 nM to 7.1 nM, nominal concentration), polyE4Y (1 mg/mL), pyruvate kinase (3.5 units), lactate dehydrogenase (5.5 units), phosphoenolpyruvate (1 mM), and NADH (0.28 mM) in 60 mM Tris buffer containing 0.13% octyl-glucoside, 13 mM MgCl2, 6.8 mM DTT, test compound, and 3.5% DMSO at pH 7.5. The reaction was initiated by adding ATP (0.2 mM, final concentration). The absorption at 340 nm was continuously monitored for 3 h at 30° C. on a Polarstar Optima plate reader (BMG) or instrument of similar capacity. The reaction rate was calculated using the 1 h to 2 h time frame. Percent inhibition was obtained by comparison of reaction rate with that of a control (i.e., with no test compound). IC50 values were calculated from a series of percent inhibition values determined at a range of inhibitor concentrations using software routines as implemented in the GraphPad Prism software package.
KDR kinase assay K2 is the same as for assay K1 except that (1) a nominal concentration of 2.1 nM of enzyme was employed (2) the reaction was pre-incubated with test compound at 30° C. for 2 h prior to initiation with ATP and (3) 1.0 mM ATP (final concentration) was used to initiate the reaction.
KDR kinase assay K3 is the same as for assay K1 except that (1) a nominal concentration of 1.1 nM of enzyme was employed, (2) the buffer components per 100 μl reaction mixture were as follows: 75 mM Tris buffer containing 0.066% octyl-glucoside, 17 mM MgCl2, and 1% DMSO at pH 7.5, (3) the final concentration of DTT was 0.66 mM, (4) the reaction was pre-incubated with test compound at 30° C. for 1 h prior to initiation with ATP, and (5) 1.0 mM ATP (final concentration) was used to initiate the reaction.

[3] = system: MKN-45 cells; assay: MKN-45 cell proliferation assay (resazurin); assay type: cell-based; settings: Homo sapiens, 67 h + 5 h resazurin
Protocol: (§1) MKN-45 cells (catalog #JCRB0254) were obtained from the Japan Health Science Research Resources Bank, Osaka, Japan. Briefly, cells were grown in RPMI 1640 media supplemented with 10% characterized fetal bovine serum (Invitrogen, Carlsbad, Calif.) at 37° C., 5% CO2, 95% humidity. Cells were allowed to expand until reaching 70-95% confluency at which point they were subcultured or harvested for assay use.
A serial dilution of test compound was dispensed into a 96-well black clear bottom plate (Corning, Corning, N.Y.). Five thousand cells were added per well in 200 μL complete growth medium. Plates were incubated for 67 hours at 37° C., 5% CO2, 95% humidity. At the end of the incubation period 40 μL of a 440 μM solution of resazurin (Sigma, St. Louis, Mo.) in PBS was added to each well and plates were incubated for an additional 5 h at 37° C., 5% CO2, 95% humidity. Plates were read on a Synergy2 reader (Biotek, Winooski, Vt.) using an excitation of 540 nm and an emission of 600 nm. Data was analyzed using Prism software (GraphPad, San Diego, Calif.) to calculate IC50 values.

[4] = target: T2, Phospho-MET in MKN-45 cells (Homo sapiens, UniProt P08581); assay: MKN-45 phospho-MET ELISA; assay type: cell-based; settings: 6 h compound, 40 ng/mL HGF 10 min, read-out: MKN-45 pMET
T2 construct: endogenous in cells; host or cells: MKN-45 (JCRB0254)
Protocol: as §1
Twenty-five thousand cells in RPMI-1640 supplemented with 10% characterized fetal bovine serum (Invitrogen, Carlsbad, Calif.) were added per well in a 96-well black clear bottom plate (Corning, Corning, N.Y.). Cells were then incubated overnight at 37 degrees Celsius, 5% CO2, 95% humidity. Media was then aspirated and cells were washed with PBS. A serial dilution of test compound was dispensed into another 96-well black clear bottom plate (Corning, Corning, N.Y.) containing serum-free RPMI-1640. Compound was added to plates containing cells and incubated for 6 hours at 37 degrees Celsius, 5% CO2, 95% humidity. Cells were stimulated with 40 ng/mL HGF (R&D Systems, Minneapolis, Minn.) for 10 minutes, and then lysed. Phospho-MET in cell lysates was detected using the DuoSet IC Human Phospho-HGF R/c-MET ELISA (R&D Systems, Minneapolis, Minn.). Data was analyzed using Prism software (Graphpad, San Diego, Calif.) to calculate IC50 values.

T1 sequence (P08581 with tags, fused parts or gaps): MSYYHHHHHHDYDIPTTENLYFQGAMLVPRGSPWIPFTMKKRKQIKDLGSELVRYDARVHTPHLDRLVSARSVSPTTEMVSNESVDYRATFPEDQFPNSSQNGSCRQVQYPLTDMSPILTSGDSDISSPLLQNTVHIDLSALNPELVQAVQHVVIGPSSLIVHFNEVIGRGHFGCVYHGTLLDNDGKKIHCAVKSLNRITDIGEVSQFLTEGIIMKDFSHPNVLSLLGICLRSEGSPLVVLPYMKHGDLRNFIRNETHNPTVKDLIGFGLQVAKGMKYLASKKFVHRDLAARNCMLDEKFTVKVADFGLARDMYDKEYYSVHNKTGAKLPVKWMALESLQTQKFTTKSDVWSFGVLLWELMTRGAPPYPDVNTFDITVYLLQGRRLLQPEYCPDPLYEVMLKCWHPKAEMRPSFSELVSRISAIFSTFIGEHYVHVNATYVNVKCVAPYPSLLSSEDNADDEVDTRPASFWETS
T2 sequence (P08581 25-1390): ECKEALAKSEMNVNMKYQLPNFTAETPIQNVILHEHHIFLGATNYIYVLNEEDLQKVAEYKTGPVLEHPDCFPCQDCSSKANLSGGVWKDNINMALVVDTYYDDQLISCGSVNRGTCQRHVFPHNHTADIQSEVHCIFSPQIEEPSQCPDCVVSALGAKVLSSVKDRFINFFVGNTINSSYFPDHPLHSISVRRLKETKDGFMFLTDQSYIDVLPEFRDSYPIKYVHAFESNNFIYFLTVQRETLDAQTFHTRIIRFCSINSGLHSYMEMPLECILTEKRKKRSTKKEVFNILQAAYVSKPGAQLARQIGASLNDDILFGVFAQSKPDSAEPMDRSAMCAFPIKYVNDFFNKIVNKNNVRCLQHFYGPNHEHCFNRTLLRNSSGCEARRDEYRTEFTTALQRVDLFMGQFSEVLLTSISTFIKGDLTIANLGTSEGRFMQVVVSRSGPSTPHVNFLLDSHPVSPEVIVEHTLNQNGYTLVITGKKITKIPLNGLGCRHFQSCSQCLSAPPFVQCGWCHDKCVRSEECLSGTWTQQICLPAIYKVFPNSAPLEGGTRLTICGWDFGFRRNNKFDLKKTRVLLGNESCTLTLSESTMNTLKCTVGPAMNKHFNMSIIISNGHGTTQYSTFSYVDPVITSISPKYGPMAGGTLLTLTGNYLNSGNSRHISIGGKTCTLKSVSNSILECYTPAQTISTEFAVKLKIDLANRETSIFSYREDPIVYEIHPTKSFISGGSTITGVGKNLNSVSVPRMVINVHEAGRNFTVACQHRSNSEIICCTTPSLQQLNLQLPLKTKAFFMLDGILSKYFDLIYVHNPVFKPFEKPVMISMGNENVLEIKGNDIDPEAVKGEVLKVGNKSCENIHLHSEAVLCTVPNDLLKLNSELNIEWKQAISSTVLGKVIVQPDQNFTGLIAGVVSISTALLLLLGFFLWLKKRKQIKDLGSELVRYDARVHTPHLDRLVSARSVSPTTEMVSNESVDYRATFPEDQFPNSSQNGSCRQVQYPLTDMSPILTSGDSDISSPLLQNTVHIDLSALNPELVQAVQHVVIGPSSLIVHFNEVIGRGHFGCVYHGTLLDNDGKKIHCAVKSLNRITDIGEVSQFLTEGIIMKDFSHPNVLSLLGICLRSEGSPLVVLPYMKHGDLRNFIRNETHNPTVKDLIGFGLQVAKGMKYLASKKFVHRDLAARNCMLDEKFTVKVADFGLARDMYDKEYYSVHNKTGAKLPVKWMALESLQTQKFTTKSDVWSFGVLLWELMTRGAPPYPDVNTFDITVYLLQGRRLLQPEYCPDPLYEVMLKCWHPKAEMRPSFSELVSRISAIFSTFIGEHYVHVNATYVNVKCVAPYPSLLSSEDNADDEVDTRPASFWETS
Chain of KDR kinase (Seq ID No. 3) (P35968 with tags, fused parts or gaps DEL940-989/E990V): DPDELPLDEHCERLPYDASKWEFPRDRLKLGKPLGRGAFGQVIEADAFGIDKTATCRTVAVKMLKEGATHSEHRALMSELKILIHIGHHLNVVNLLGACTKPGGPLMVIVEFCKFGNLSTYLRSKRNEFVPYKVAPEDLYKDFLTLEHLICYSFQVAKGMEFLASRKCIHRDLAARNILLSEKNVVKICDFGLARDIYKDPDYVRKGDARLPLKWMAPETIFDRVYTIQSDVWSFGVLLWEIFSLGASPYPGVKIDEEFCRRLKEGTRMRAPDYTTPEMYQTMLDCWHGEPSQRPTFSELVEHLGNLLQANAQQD

Structure (SMILES) | IC50 [1] | IC50 [2] | IC50 [3] | IC50 [4]
Cn1cc(-c2cc(Oc3cc(F)c(NC(=O)c4cccn(-c5ccc(F)cc5)c4=O)cc3F)ccn2)cn1 [Example 1, N-(2,5-difluoro-4-((2-(1-methyl-1H-pyrazol-4-yl)pyridin-4-yl)oxy)phenyl)-1-(4-fluorophenyl)-2-oxo-1,2-dihydropyridine-3-carboxamide] | ≤ 100 nM | > 1000 nM | ≤ 100 nM | ≤ 100 nM
CCOc1ccn(-c2ccc(F)cc2)c(=O)c1C(=O)Nc1cc(F)c(Oc2ccnc(-c3cnn(C)c3)c2)cc1F [Example 2, N-(2,5-difluoro-4-(2-(1-methyl-1H-pyrazol-4-yl)pyridin-4-yloxy)phenyl)-4-ethoxy-1-(4-fluorophenyl)-2-oxo-1,2-dihydropyridine-3-carboxamide] | ≤ 100 nM | > 1000 nM | ≤ 100 nM | ≤ 100 nM
O=C(Nc1cc(F)c(Oc2ccnc(-c3cnn(CCO)c3)c2)cc1F)c1cccn(-c2ccc(F)cc2)c1=O [Example 3, N-(2,5-difluoro-4-((2-(1-(2-hydroxyethyl)-1H-pyrazol-4-yl)pyridin-4-yl)oxy)phenyl)-1-(4-fluorophenyl)-2-oxo-1,2-dihydropyridine-3-carboxamide hydrochloride] | ≤ 100 nM | > 1000 nM | – | ≤ 100 nM
CCNc1ccn(-c2ccc(F)cc2)c(=O)c1C(=O)Nc1cc(F)c(Oc2ccnc(-c3cnn(C)c3)c2)cc1F [Example 5, N-(2,5-difluoro-4-((2-(1-methyl-1H-pyrazol-4-yl)pyridin-4-yl)oxy)phenyl)-4-(ethylamino)-1-(4-fluorophenyl)-2-oxo-1,2-dihydropyridine-3-carboxamide] | ≤ 100 nM | > 1000 nM | 100 to 1000 nM | –

Source: patent publication US9012635B2, “Pyridone amides and analogs exhibiting anti-cancer and anti-proliferative activities” (Deciphera Pharmaceuticals, LLC, priority 2013, dated 2015)
